The structures appear in SMILES notation.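 Where inhibition never reached the appropriate level, the endpoint shown equals the highest concentration tested. Otherwise, values were interpolated linearly from a five-concentration, 48-hour dose response in 96-well plates. Here, GI50 denotes the concentration required for 50% inhibition of growth. At the TGI there is no net growth.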 Some results are limits rather than exact numbers.

Test systems include SK-OV-3 ovarian; UACC-62 melanoma; SN12C renal; K-562 leukemia; SR leukemia; PC-3 prostate; 786-0 renal; ACHN renal; NCI-H23 lung; RXF 393 renal.
What all share (assay): NCI-60 cell line screen, 48 h

For `COc1ccc2c(c1)CCC1C2CC[C@@]2(C)C1CC1=CC(COC(C)=O)C3C(=O)c4ccccc4C(=O)C3C12` (stereo not given in full), the GI50 in the experiment with SK-OV-3 ovarian was above 100 µM; in the experiment on UACC-62 melanoma, 47.3 µM; in the experiment with SN12C renal, above 100 µM; in the experiment on K-562 leukemia, 64.1 µM; with SR leukemia it was above 100 µM; with PC-3 prostate it was 48.4 µM. Further, the GI50 in the experiment with 786-0 renal was above 100 µM; in the experiment on ACHN renal, 47.9 µM; in the experiment with NCI-H23 lung it was above 100 µM; with RXF 393 renal, 59.8 µM. The TGI with SK-OV-3 ovarian, in the experiment with UACC-62 melanoma, in the experiment on SN12C renal, with K-562 leukemia, in the experiment with SR leukemia and with PC-3 prostate was above 100 µM throughout. In addition, the TGI in the experiment on 786-0 renal, in the experiment with ACHN renal, with NCI-H23 lung and with RXF 393 renal was above 100 µM each time.

As for `Cc1ccc(Cl)cc1Nc1nc(C(F)(F)F)ccc1C(=O)N1CCN(c2ccc(F)cc2)CC1`, the GI50 with SK-OV-3 ovarian was 15.6 µM; in the experiment with UACC-62 melanoma, 11.5 µM; in the experiment on SN12C renal, 15 µM; in the experiment with K-562 leukemia, 9.53 µM; in the experiment on SR leukemia, 17.6 µM; with PC-3 prostate, 10.2 µM. In addition, the GI50 in the experiment on 786-0 renal was 14.7 µM; in the experiment with ACHN renal, 11.8 µM; in the experiment with NCI-H23 lung, 10.2 µM; with RXF 393 renal it was 11.2 µM. Moreover, the TGI in the experiment on SK-OV-3 ovarian worked out at 36.1 µM; in the experiment on UACC-62 melanoma it was 24.1 µM; in the experiment on SN12C renal, 28.6 µM; in the experiment with K-562 leukemia, 30 µM; in the experiment with SR leukemia, 80.6 µM; in the experiment with PC-3 prostate, 33.3 µM. The TGI worked out at 29.4 µM with 786-0 renal, 47.7 µM in the experiment on ACHN renal, 24.2 µM with NCI-H23 lung and 29.9 µM in the experiment on RXF 393 renal.

As for `O=c1c2ccccc2[se]n1-c1cccnc1`, the TGI was above 100 µM in the experiment on SK-OV-3 ovarian; 37.1 µM in the experiment on UACC-62 melanoma; 99.4 µM with SN12C renal; above 100 µM in the experiment on K-562 leukemia; above 100 µM in the experiment on SR leukemia; 48.6 µM in the experiment with PC-3 prostate. Moreover, the TGI turned out to be 87.4 µM with 786-0 renal, 88.1 µM in the experiment with ACHN renal, 53.2 µM with NCI-H23 lung and 69.2 µM in the experiment with RXF 393 renal.

With `COC(=O)/C=C/c1cc(O)c2oc(-c3ccc(O)c(O)c3)c(C(=O)OC)c2c1`, the GI50 is 1.13 µM in the experiment with SK-OV-3 ovarian; 0.802 µM in the experiment on UACC-62 melanoma; 0.576 µM in the experiment on SN12C renal; 0.0511 µM in the experiment on K-562 leukemia; 0.039 µM in the experiment on SR leukemia; 0.437 µM with PC-3 prostate. Further, the GI50 in the experiment on 786-0 renal is 3.67 µM; with ACHN renal it was 0.361 µM; in the experiment on NCI-H23 lung, 0.43 µM; in the experiment with RXF 393 renal, 0.523 µM. For the same compound, the TGI in the experiment with SK-OV-3 ovarian is 15.6 µM; in the experiment on UACC-62 melanoma, 5.96 µM; with SN12C renal, 12.2 µM; in the experiment on K-562 leukemia, 26.9 µM; in the experiment on SR leukemia, above 24.3 µM; with PC-3 prostate, 13.1 µM. For the same compound, the TGI was determined as 16.3 µM in the experiment with 786-0 renal, 10.4 µM with ACHN renal, 7.81 µM in the experiment with NCI-H23 lung and 4.84 µM in the experiment with RXF 393 renal.

On to `Cc1ccc(C(SCC(N)C(=O)O)(c2ccccc2)c2ccc(C)cc2)cc1` (stereo not given), for which the GI50 with SK-OV-3 ovarian is 0.0811 µM; in the experiment with UACC-62 melanoma, 0.119 µM; with SN12C renal it was 2.33 µM; with K-562 leukemia, 0.266 µM; in the experiment with SR leukemia it was 0.204 µM; with PC-3 prostate, 0.314 µM. Also, the GI50 in the experiment with 786-0 renal is 2.21 µM; in the experiment with ACHN renal, 1.78 µM; in the experiment with NCI-H23 lung it was 0.423 µM; in the experiment with RXF 393 renal, 0.0957 µM. Besides, the TGI was 19.6 µM in the experiment with SK-OV-3 ovarian; 17.3 µM in the experiment on UACC-62 melanoma; 23.8 µM in the experiment with SN12C renal; above 35.2 µM in the experiment on K-562 leukemia; 4.33 µM with SR leukemia; 30.4 µM in the experiment on PC-3 prostate. The TGI with 786-0 renal was 24.4 µM; in the experiment on ACHN renal, 36.3 µM; in the experiment with NCI-H23 lung it was 23.7 µM; in the experiment with RXF 393 renal it was 3.52 µM.

Take `CCOc1nc(-c2ccccc2)cc2c(O)c(-c3nnco3)[nH]c(=O)c12`: the GI50 in the experiment with SK-OV-3 ovarian is 10 µM; in the experiment on UACC-62 melanoma, 6.47 µM; in the experiment with SN12C renal it was 3.27 µM; with K-562 leukemia, 4.83 µM; in the experiment with SR leukemia, 3.85 µM; in the experiment on PC-3 prostate, 4.3 µM. Besides, the GI50 in the experiment on 786-0 renal is 6.17 µM; in the experiment with ACHN renal, 5.02 µM; in the experiment on NCI-H23 lung, 4.01 µM; in the experiment with RXF 393 renal, 3.71 µM. For the same compound, the TGI in the experiment on SK-OV-3 ovarian is 75.9 µM; in the experiment on UACC-62 melanoma it was above 100 µM; in the experiment on SN12C renal, above 100 µM; with K-562 leukemia it was above 100 µM; in the experiment on SR leukemia, above 100 µM; in the experiment on PC-3 prostate, above 100 µM. For the same compound, the TGI in the experiment with 786-0 renal was 31.9 µM; with ACHN renal, above 100 µM; in the experiment on NCI-H23 lung, above 100 µM; with RXF 393 renal, 25.2 µM.

Consider `CC/C(=C(/c1ccc(OCCN(C)C)cc1)c1ccc(OC(=O)CCCCC(=O)c2c(C)[nH]c(/C=C3\N=C(c4ccc[nH]4)C=C3OC)c2C)cc1)c1ccccc1`, for which the GI50 in the experiment with SK-OV-3 ovarian is 14.1 µM; with UACC-62 melanoma, 4.94 µM; in the experiment with SN12C renal, 5.39 µM; with K-562 leukemia, 3.16 µM; in the experiment on SR leukemia, 3.05 µM; with PC-3 prostate, 4.6 µM. The GI50 is 4.77 µM with 786-0 renal, 4.84 µM with ACHN renal, 12.7 µM in the experiment with NCI-H23 lung and 3.86 µM with RXF 393 renal. Further, the TGI with SK-OV-3 ovarian turned out to be 27 µM; in the experiment with UACC-62 melanoma it was 17.8 µM; with SN12C renal it was 21.4 µM; in the experiment on K-562 leukemia, 12.6 µM; in the experiment with SR leukemia, 21 µM; in the experiment with PC-3 prostate, 20.6 µM. The TGI in the experiment on 786-0 renal worked out at 19.2 µM; in the experiment with ACHN renal it was 22.8 µM; in the experiment with NCI-H23 lung, 29.7 µM; in the experiment with RXF 393 renal, 17.7 µM.

For the compound `O=C(Nc1ccc(OS(=O)(=O)c2ccccc2)cc1)C12CC3CC(CC(C3)C1)C2`, the GI50 with SK-OV-3 ovarian is above 100 µM; in the experiment on UACC-62 melanoma, 6.47 µM; in the experiment with SN12C renal, above 100 µM; with K-562 leukemia, 0.576 µM; with SR leukemia, 3.6 µM; with PC-3 prostate, 2.9 µM. In addition, the GI50 is 3.8 µM in the experiment with 786-0 renal, above 100 µM in the experiment with ACHN renal, 6.68 µM with NCI-H23 lung and 5.12 µM with RXF 393 renal. In addition, the TGI in the experiment with SK-OV-3 ovarian, in the experiment with UACC-62 melanoma, in the experiment on SN12C renal, in the experiment with K-562 leukemia, with SR leukemia and with PC-3 prostate was above 100 µM throughout. The TGI in the experiment on 786-0 renal, in the experiment with ACHN renal, in the experiment on NCI-H23 lung and in the experiment with RXF 393 renal was above 100 µM throughout.

Values taken from PubChem BioAssay (NCI).
